Where a name gives a salt, the structure may show the parent alone.
Columns and labels:
[1] = system: rat liver microsomes (RLM); experiment: Drug interaction screening of 48 drugs on dabrafenib metabolism in RLM; format: in vitro ADME
Method: The 200 µL incubation system contained 0.1 M Tris-HCl (pH = 7.6), 0.5 mg/mL RLM or HLM, 1 mM NADPH, and dabrafenib. After pre-incubation (37 °C, 5 min), reactions were initiated by adding 1 mM NADPH and terminated after 40 min with 300 µL ice-cold acetonitrile. Carbamazepine (100 ng/mL) was added as the IS. Samples were vortex-mixed (2 min), centrifuged (17,000 × g, 10 min, 4 °C), and supernatants analyzed by UPLC-MS/MS. Hydroxy-dabrafenib concentrations were quantified via UPLC-MS/MS. Reaction velocity (V) was calculated as hydroxy-dabrafenib formation rate (pmoL/min/µg protein).
For drug interaction screening, inhibitors (100 µM final concentration) were screened in the standard incubation system.
The concentrations of dabrafenib and hydroxy-dabrafenib were quantified by UPLC-MS/MS. Chromatographic separation was performed on a Waters Acquity UPLC BEH C18 column (2.1 mm × 50 mm, 1.7 µm particle size) maintained at 40 °C. […] Total run time was 2 min. Detection employed a Waters Xevo TQS triple quadrupole mass spectrometer (Milford, MA, United States) operated in positive-ion multiple reaction monitoring mode.

[2] = design: method as in Puszkiel et al., 2019; Balakirouchenane et al., 2021; conditions: ref Puszkiel et al., 2019; Balakirouchenane et al., 2021; cited from earlier work
[3] = RLM, inhibitor 100 µM, dabrafenib at RLM Km concentration, hydroxy-dabrafenib formation
[4] = RLM, inhibitor 100 µM, dabrafenib at RLM Km concentration

| Compound | Relative activity (% of control) [1, 3] | further results |
| --- | --- | --- |
| CC(=O)Nc1ccc(O)cc1 [Acetaminophen] | 90.08% ± 0.04 |  |
| COc1ccc2cccc(CCNC(C)=O)c2c1 [Agomelatine] | 36.20% ± 0.08 |  |
| CN(C)CCC=C1c2ccccc2CCc2ccccc21 [Amitriptyline] | 38.88% ± 0.04 |  |
| O=c1ccc2ccc(OCCCCN3CCN(c4cccc5sccc45)CC3)cc2[nH]1 [Brexpiprazole] | 29.48% ± 0.05 | inhibition of dabrafenib metabolism [1, 4]: > 70% |
| CC(NC(C)(C)C)C(=O)c1cccc(Cl)c1 (centres unmarked) [Bupropion] | 30.23% ± 0.06 |  |
| Cc1ccc(-c2cc(C(F)(F)F)nn2-c2ccc(S(N)(=O)=O)cc2)cc1 [Celecoxib] | 33.72% ± 0.13 |  |
| CN/C(=N/CCSCc1nc[nH]c1C)NC#N [Cimetidine] | 84.61% ± 0.03 |  |
| CN(C)CCCC1(c2ccc(F)cc2)OCc2cc(C#N)ccc21 (centres unmarked) [Citalopram] | 59.29% ± 0.07 |  |
| CN(C)CCCN1c2ccccc2CCc2ccc(Cl)cc21 [Clomipramine] | 54.39% ± 0.08 |  |
| C[C@@H]1C[C@H]2[C@@H]3CCC4=CC(=O)C=C[C@]4(C)[C@@]3(F)[C@@H](O)C[C@]2(C)[C@@]1(O)C(=O)CO [Dexamethasone] | 59.84% ± 0.07 |  |
| COc1ccc2c(c1)[C@]13CCCC[C@@H]1[C@H](C2)N(C)CC3 [Dextromethorphan hydrobromide] | 79.28% ± 0.03 |  |
| O=C(O)Cc1ccccc1Nc1c(Cl)cccc1Cl [Diclofenac sodium] | 69.82% ± 0.04 |  |
| CN(C)CCOC(c1ccccc1)c1ccccc1 [Diphenhydramine hydrochloride] | 90.45% ± 0.11 |  |
| CCCCc1oc2ccc(NS(C)(=O)=O)cc2c1C(=O)c1ccc(OCCCN(CCCC)CCCC)cc1 [Dronedarone hydrochloride] | 20.07% ± 0.02 | inhibition of dabrafenib metabolism [1, 4]: > 70% |
| CNCC[C@H](Oc1cccc2ccccc12)c1cccs1 [Duloxetine] |  | Relative activity (% of control) ([1]; 100 µM): 40.82% ± 0.01 |
| CNCCC(Oc1ccc(C(F)(F)F)cc1)c1ccccc1 (centres unmarked) [Fluoxetine] | 18.63% ±0.04 | inhibition of dabrafenib metabolism [1, 4]: > 70% |
| CC(C(=O)O)c1ccc(-c2ccccc2)c(F)c1 (centres unmarked) [Flurbiprofen] | 59.91% ± 0.03 |  |
| CCC1=C(C)CN(C(=O)NCCc2ccc(S(=O)(=O)NC(=O)N[C@H]3CC[C@H](C)CC3)cc2)C1=O [Glimepiride] | 100.17% ± 0.01 |  |
| Cc1cnc(C(=O)NCCc2ccc(S(=O)(=O)NC(=O)NC3CCCCC3)cc2)cn1 [Glipizide] | 106.96% ± 0.06 |  |
| COc1ccc(Cl)cc1C(=O)NCCc1ccc(S(=O)(=O)NC(=O)NC2CCCCC2)cc1 [Glybenzcyclamide] | 78.13% ± 0.03 |  |
| C[C@]12CCC(=O)C=C1CC[C@@H]1[C@@H]2[C@@H](O)C[C@@]2(C)[C@H]1CC[C@]2(O)C(=O)CO [Hydrocortisone] | 70.48% ± 0.08 |  |
| COc1ccc2c(c1)c(CC(=O)O)c(C)n2C(=O)c1ccc(Cl)cc1 [Indomethacin] | 60.51% ± 0.004 |  |

| Compound | Relative activity (% of control) [1, 3] | further results |
| --- | --- | --- |
| Cc1c(OCC(F)(F)F)ccnc1C[S+]([O-])c1nc2ccccc2[nH]1 (centres unmarked) [Lansoprazole] | 27.68% ± 0.01 | inhibition of dabrafenib metabolism [1, 4]: > 70% |
| CN1C(C(=O)Nc2ccccn2)=C(O)c2sc(Cl)cc2S1(=O)=O [Lornoxicam] | 65.67% ± 0.04 |  |
| CC(C(=O)O)c1ccc(CC2CCCC2=O)cc1 (centres unmarked) [Loxoprofen] | 57.60% ± 0.04 |  |
| Cc1cnc(NC(=O)C2=C(O)c3ccccc3S(=O)(=O)N2C)s1 [Meloxicam sodium] | 61.62% ± 0.06 |  |
| CN(C)C(=N)N=C(N)N [Metformin hydrochloride] | 109.07% ± 0.01 |  |
| COCCc1ccc(OCC(O)CNC(C)C)cc1 (centres unmarked) [Metoprolol Tartrate] | 59.44% ± 0.08 |  |
| CN1CCN2c3ncccc3Cc3ccccc3C2C1 (centres unmarked) [Mirtazapine] | 50.53% ±0.001 |  |
| CC(C)[C@H]1CC[C@H](C(=O)N[C@H](Cc2ccccc2)C(=O)O)CC1 [Nateglinide] | 108.55% ± 0.06 |  |
| CN1CCOC(c2ccccc2)c2ccccc2C1 (centres unmarked) [Nefopam hydrochloride] | 52.87% ± 0.15 |  |
| COc1ccc2[nH]c([S+]([O-])Cc3ncc(C)c(OC)c3C)nc2c1 (centres unmarked) [Omeprazole] | 46.24% ±0.04 |  |
| Cc1nc2n(c(=O)c1CCN1CCC(c3noc4cc(F)ccc34)CC1)CCCC2O (centres unmarked) [Paliperidone] | 101.95% ± 0.03 |  |
| CCC(=O)NS(=O)(=O)c1ccc(-c2c(-c3ccccc3)noc2C)cc1 [Parecoxib] | 72.34% ± 0.11 |  |
| C=C[C@H]1C[N@@]2CC[C@H]1C[C@@H]2[C@@H](O)c1ccnc2ccc(OC)cc12 [Quinidine] | 60.50% ± 0.14 |  |
| CN(CCOc1ccc(CC2SC(=O)NC2=O)cc1)c1ccccn1 (centres unmarked) [Rosiglitazone maleate] | 64.26% ± 0.004 |  |
| N#C[C@@H]1C[C@@H]2C[C@@H]2N1C(=O)[C@@H](N)C12CC3CC(CC(O)(C3)C1)C2 [Saxagliptin hydrochloride] | 114.45% ± 0.02 |  |
| CN[C@H]1CC[C@@H](c2ccc(Cl)c(Cl)c2)c2ccccc21 [Sertraline] | 29.92% ± 0.05 |  |
| O=c1n(CCCN2CCN(c3cccc(Cl)c3)CC2)nc2ccccn12 [Trazodone] | 49.14% ± 0.01 |  |
| CN1[C@@H]2CC[C@H]1C[C@@H](OC(=O)c1c[nH]c3ccccc13)C2 [Tropisetron] | 84.28% ± 0.07 |  |
| COc1ccc(C(CN(C)C)C2(O)CCCCC2)cc1 (centres unmarked) [Venlafaxine] | 54.22% ± 0.004 |  |
| Cc1ccc(Sc2ccccc2N2CCNCC2)c(C)c1 [Vortioxetine] | 11.14% ±0.001 | inhibition of dabrafenib metabolism [1, 4]: > 70% |
| CC(=O)N1CCN(c2ccc(OCC3COC(Cn4ccnc4)(c4ccc(Cl)cc4Cl)O3)cc2)CC1 (centres unmarked) [ketoconazole] |  | increase of dabrafenib Cmax on ketoconazole coadministration [2]: 33%; increase of dabrafenib area under curve (AUC) on ketoconazole coadministration [2]: 71% |
| Troagliptin succinate |  | Relative activity (% of control) ([1]; 100 µM): 117.88% ± 0.02 |
